Measured values taken from patent publication US12624004B2 (Fudan University, priority 2019, dated 2026).
Structures can show the parent of a compound that is named as a salt. Where two headings read alike, the source gives them in different places.

Key:
[1] = molecular target: T1, μ opioid receptor (Homo sapiens, UniProt P35372); assay: Competition binding assay on membranes of CHO cells expressing μ opioid receptor, [3H]-labeled ligand; conditions: for Ki: read-out: μOR Ki; for inhibition at 10 µM: Table 1-1, 10 μM concentration of compound, mean ± SD of three measurements, read-out: μOR Binding rate (%)
T1 construct: expressed in transfected cells; host or cells: CHO cells (membranes)
Procedure: (§1) CHO cells expressing p opioid receptor, δ opioid receptor and κ opioid receptor were cultured in 10 cm^2 culture dishes (F-12 medium+10% neonatal bovine serum) for several days, and the culture fluid was aspirated after the cells had grown to the bottom of the dishes; 3 ml of PBS/EDTA solution (0.1M NaCl, 0.01M NaH2PO4, 0.04% EDTA) was added to digest the cells for 3-5 min. Add ice-cold homogenate (50 mM HEPES PH 7.4, 3 mM MgCl, 1 mM EGTA) to the centrifuge tube, transfer the solution and sediment to a homogenizer and homogenize; then transfer the homogenate to a centrifuge tube and centrifuge at 18000 rpm. Centrifuge for 15 min, two times; the obtained precipitate was homogenized with appropriate amount of 50 mM Tris-HCl, pH 7.4 buffer and divided into centrifuge tubes and stored at −70° C. in the refrigerator until use.
(§2) The total binding tube was spiked with 20-30 μg of the expressed membrane receptor protein and […] ligand (1-2 nM), the corresponding non-specific binding tube was spiked with 1 μM of the corresponding ligand, and the sample tubes were spiked with various screened opioid ligands in a final volume of […], incubated at 30° C. for 30 min, and the reaction was terminated in ice water. […] The samples were filtered under negative pressure through GF/C (whatman) glass fiber filter paper on a Millipore sample collector. The reaction was rinsed three times with 4 ml of 50 mMV Tris-HCl (pH 7.4), the filter paper was dried and placed in 0.5 ml Eppendorf tubes with 0.5 ml of lipophilic scintillation solution, the radioactivity was measured by PERKIN ELMER PRI-CARB 2910 liquid scintillation counter and the inhibition rate was calculated. Inhibition rate (or binding rate)=(total binding rate dpm−sample tube dpm)/(total binding tube dpm−non-specific binding tube dpm)×100%
(§3) IC50 was calculated using Prism 5.0 software. the Ki value was calculated as follows, Ki=IC50/(1+[IL]/Kd), [lL] is the concentration of the added labeled ligand and Kd is the equilibrium dissociation parameter of the labeled ligand.
(§4) CHO cells expressing p opioid receptor, δ opioid receptor and κ opioid receptor were cultured in a 10 cm^2 culture dish (F-12 medium+10% neonatal bovine serum) for several days, and the culture fluid was aspirated after the cells grew to the bottom of the dish. 3 mL PBS/EDTA solution (0.1 M NaCl, 0.01 M NaH2PO4, 0.04% EDTA) was added to digest the cells for 3˜5 min, blew with a pipette to completely dislodge the cells. The cells were collected in a 40 mL centrifuge tube, centrifuged at 5000 rpm for 5 min. The supernatant was removed and the ice-cold homogenate (50 mM HEPES pH 7.4, 3 mM MgCl2, 1 mM EGTA) was added to the centrifuge tube. The solution and the precipitate were transferred to a homogenizer. Then the homogenate was transferred to a centrifuge tube and centrifuged at 18000 rpm for 15 min. The precipitate was centrifuged twice at 18000 rpm for 15 min. The obtained precipitate was homogenized by adding appropriate amount of 50 mM Tris-HCl, pH 7.4 buffer and divided into centrifuge tubes and stored at −70° C. in the refrigerator until use.
(§5) The total binding tube was added with 20-30 μg of expressed membrane receptor protein and [3H]-labeled ligand (1-2 nM). The corresponding non-specific binding tube was added with 1 μM of the corresponding ligand, and the sample tubes were added with various screened opioid ligands in a final volume of 100 μL. All of them were incubated for 30 min at 30° C., and the reaction was terminated in ice water. The samples were filtered under negative pressure through GF/C (Whatman) glass fiber filter paper on a Millipore sample collector. The reaction was rinsed three times with 4 mL of 50 mM Tris-HCl (pH 7.4), the filter paper was dried and placed in 0.5 mL Eppendorf tubes with 0.5 mL of lipophilic scintillation solution. […]

[2] = molecular target: T2, δ opioid receptor (Homo sapiens, UniProt P41143); assay: Competition binding assay on membranes of CHO cells expressing δ opioid receptor, [3H]-labeled ligand; conditions: for inhibition at 1 µM / inhibition at 10 µM: 0.5 h; for inhibition at 1 µM: 1 μM concentration of compound; for inhibition at 10 µM: Table 1-1, 10 μM concentration of compound; for Ki: read-out: δOR Ki
T2 construct: expressed in transfected cells; host or cells: CHO cells (membranes)
Procedure: as §1, §2, §3, §4, §5

[3] = molecular target: T3, κ opioid receptor (Homo sapiens, UniProt P41145); assay: Competition binding assay on membranes of CHO cells expressing κ opioid receptor, [3H]-labeled ligand; conditions: for inhibition at 1 µM / inhibition at 10 µM: 0.5 h; for inhibition at 1 µM: 1 μM concentration of compound; for inhibition at 10 µM: 10 μM concentration of compound; for Ki: read-out: κOR Ki
T3 construct: expressed in transfected cells; host or cells: CHO cells (membranes)
Procedure: as §1, §2, §3, §4, §5

[4] = Table 1-1, read-out: κOR Binding rate (%)

COc1cccc(C2(O)CCN(C(=O)Cc3ccccc3Cl)CC2CN(C)C)c1 (stereo not drawn) [FWBE20, 2-(2-Chlorophenyl)-1-(3-((dimethylamino)methyl)-4-hydroxy-4-(3-methoxyphenyl)piperidin-1-yl)ethyl-1-one hydrochloride]
inhibition at 1 µM ([1]; 0.5 h, Table 5-1, 1 μM concentration of compound, read-out: μOR Combination rate (%)): 28.3 ± 7.2%
inhibition at 1 µM ([2]; Table 5-1, read-out: δOR Combination rate (%)): 0%
inhibition at 1 µM ([3]; Table 5-1, read-out: κOR Combination rate (%)): 34.8 ± 0.7%

COc1cccc([C@@]2(O)CCN(C(=O)Cc3cc(F)c(F)cc3F)C[C@@H]2CN(C)C)c1
Ki ([1]; Table 4-1): 2310 ± 234 nM
inhibition at 1 µM ([2]; Table 4-1, read-out: δOR Binding rate (%)): 0%
inhibition at 1 µM ([3]; Table 4-1, read-out: κOR Binding rate (%)): 23.4 ± 3.9%

COc1cccc(C2(O)CCC(S(=O)(=O)Cc3ccccc3)CC2CN(C)C)c1 (stereo not drawn) [4-(Benzylsulfonyl)-2-((dimethylamino)methyl)-1-(3-methoxyphenyl) cyclohexane-1-ol hydrochloride]
inhibition at 10 µM [1]: 98.6 ± 1.2%
inhibition at 10 µM ([2]; read-out: δOR Binding rate (%)): 44 ± 7.85%
inhibition at 10 µM [3, 4]: 47.7 ± 3.1%

CN(C)C[C@H]1CN(C(=O)Cc2cc(F)c(F)cc2F)CC[C@]1(O)c1cccc(O)c1
Ki ([1]; Table 4-1): 53.5 ± 0.09 nM
Ki ([2]; Table 4-1): 3560 ± 96.5 nM
Ki ([3]; Table 4-1): 42.3 ± 0.6 nM

CN(C)C[C@H]1CN(S(=O)(=O)Cc2ccccc2)CC[C@]1(O)c1cccc(O)c1 [(3S,4R)-1-(Benzylsulfonyl)-3-((dimethylamino)methyl)-4-(3-hydroxyphenyl)piperidin-4-ol hydrochloride]
Ki ([1]; Table 4-1): 38.3 ± 1.18 nM
Ki ([2]; Table 4-1): 1089 ± 9 nM
Ki ([3]; Table 4-1): 231 ± 13.1 nM

COc1cccc(C2(O)CCC(NS(=O)(=O)c3ccccc3)CC2CN(C)C)c1 (stereo not drawn) [N-(3-((Dimethylamino)methyl)-4-hydroxy-4-(3-methoxyphenyl)cyclohexyl) benzenesulfonamide hydrochloride]
inhibition at 10 µM [1]: 75.8 ± 4.1%
inhibition at 10 µM ([2]; read-out: δOR Binding rate (%)): 38 ± 2.43%
inhibition at 10 µM [3, 4]: 25.8 ± 7.9%

CN(C)CC1CN(S(=O)(=O)Cc2ccccc2)CCC1(O)c1cccc(OC(F)(F)F)c1.Cl (stereo not drawn) [hydrochloride]
Ki ([1]; Table 2-1): 64.5 ± 1.76 nM
inhibition at 1 µM ([2]; Table 2-1, read-out: δOR Binding rate (%)): 40.8 ± 2.23%
inhibition at 1 µM ([3]; Table 2-1, read-out: κOR Binding rate (%)): 21.4 ± 0.36%

COc1cccc(C2(OC(=O)c3ccccc3)CCC(NS(=O)(=O)c3cccc(Cl)c3)CC2CN(C)C)c1 (stereo not drawn)
inhibition at 10 µM [1]: 70.4 ± 3%
inhibition at 10 µM ([2]; read-out: δOR Binding rate (%)): 18.8 ± 8.6%
inhibition at 10 µM [3, 4]: 39 ± 5.5%

COc1cccc(C2(OC(=O)c3ccccc3)CCC(N(C)S(=O)(=O)Cc3cccc(Cl)c3)CC2CN(C)C)c1 (stereo not drawn)
inhibition at 10 µM [1]: 89.8 ± 4.6%
inhibition at 10 µM ([2]; read-out: δOR Binding rate (%)): 4.8%
inhibition at 10 µM [3, 4]: 25.5 ± 6.1%

COc1cccc(C2(O)CCC(NS(=O)(=O)c3cccc(Cl)c3)CC2CN(C)C)c1 (stereo not drawn)
inhibition at 10 µM [1]: 79.7 ± 4.6%
inhibition at 10 µM ([2]; read-out: δOR Binding rate (%)): 14.5 ± 5.8%
inhibition at 10 µM [3, 4]: 35.9 ± 5.7%

CN(C)C[C@@H]1CN(C(=O)Cc2cc(F)c(F)cc2F)CC[C@@]1(O)c1cccc(O)c1
Ki ([1]; Table 4-1): 1.77 ± 0.18 nM
Ki ([2]; Table 4-1): 178 ± 17.9 nM
Ki ([3]; Table 4-1): 127 ± 1.6 nM

COc1cccc(C2(O)CCC(N(Cc3ccccc3)S(=O)(=O)c3ccccc3)CC2CN(C)C)c1 (stereo not drawn)
inhibition at 10 µM [1]: 70.5 ± 2.3%
inhibition at 10 µM ([2]; read-out: δOR Binding rate (%)): 9.53%
inhibition at 10 µM [3, 4]: 84.7 ± 2.1%

CN(C)C[C@@H]1CN(S(=O)(=O)Cc2ccccc2)CC[C@@]1(O)c1cccc(O)c1 [(3R,4S)-1-(Benzylsulfonyl)-3-((dimethylamino)methyl)-4-(3-hydroxyphenyl)piperidin-4-ol hydrochloride]
Ki ([1]; Table 4-1): 0.17 ± 0.01 nM
Ki ([2]; Table 4-1): 1100 ± 42 nM
Ki ([3]; Table 4-1): 33.7 ± 3.26 nM

COc1cccc(C2(OC(=O)c3ccccc3)CCC(NS(=O)(=O)c3ccccc3)CC2CN(C)C)c1 (stereo not drawn)
inhibition at 10 µM [1]: 80.9 ± 4.4%
inhibition at 10 µM ([2]; read-out: δOR Binding rate (%)): 17.4 ± 2.5%
inhibition at 10 µM [3, 4]: 51.5 ± 6.6%

COc1cccc([C@]2(O)CCN(S(=O)(=O)Cc3ccccc3)C[C@H]2CN(C)C)c1 [(3R,4S)-1-(Benzylsulfonyl)-3-((dimethylamino)methyl)-4-(3-methoxyphenyl)piperidin-4-ol hydrochloride salt]
inhibition at 0.1 µM ([1]; Table 4-1 footnote a, 0.1 μM, read-out: μOR Inhibition rate): 27.5 ± 1.54%
inhibition at 0.1 µM ([2]; Table 4-1 footnote a, 0.1 μM, read-out: δOR Inhibition rate): 10.5 ± 3.7%
inhibition at 0.1 µM ([3]; Table 4-1 footnote a, 0.1 μM, read-out: κOR Inhibition rate): 15.2 ± 1.56%

COc1cccc(C2(OC(=O)c3ccccc3)CCC(N(C)S(=O)(=O)Cc3ccccc3)CC2CN(C)C)c1 (stereo not drawn)
inhibition at 10 µM [1]: 81.2 ± 4.2%
inhibition at 10 µM ([2]; read-out: δOR Binding rate (%)): 30.1 ± 14.9%
inhibition at 10 µM [3, 4]: 35.7 ± 3%

COc1cccc(C2(OC(F)F)CCN(S(=O)(=O)Cc3ccccc3)CC2CN(C)C)c1.Cl (stereo not drawn) [hydrochloride]
inhibition at 0.1 µM ([1]; Table 2-1 footnote a, at 0.1 μM, read-out: μOR Inhibition rate or binding rate): 22.6 ± 9.8%
inhibition at 0.1 µM ([2]; Table 2-1 footnote a, at 0.1 μM, read-out: δOR Inhibition rate or binding rate): 0%
inhibition at 0.1 µM ([3]; Table 2-1 footnote a, at 0.1 μM, read-out: κOR Inhibition rate or binding rate): 15.5 ± 4.1%

COc1cccc(C2(O)CCC(N(Cc3ccccc3)S(=O)(=O)c3cccc(Cl)c3)CC2CN(C)C)c1 (stereo not drawn)
inhibition at 10 µM [1]: 85.8 ± 3.2%
inhibition at 10 µM ([2]; read-out: δOR Binding rate (%)): 5.1%
Ki ([3]; Table 1-1): 9.81 ± 0.32 nM
